Source: ChEMBL document CHEMBL1909046, “DrugMatrix in vitro pharmacology data”

Tests used:
[1] = biological target: Aldo-keto reductase family 1 member B1 (Rattus norvegicus, UniProt P07943); assay type: tissue-based, Lens of camera-type eye;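 note: inhibition of aldose reductase enzyme activity, measured with DL-glyceraldehyde as the substrate; in other assays of this panel Not Active means under 50% inhibition at 10 µM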
[2] = biological target: T1, Type-2 angiotensin II receptor (Homo sapiens, UniProt P50052); assay type: cell-based; settings: cho-k1; note: in other assays of this panel Not Active means under 50% inhibition at 10 µM
T1 sequence (P50052 whole entry): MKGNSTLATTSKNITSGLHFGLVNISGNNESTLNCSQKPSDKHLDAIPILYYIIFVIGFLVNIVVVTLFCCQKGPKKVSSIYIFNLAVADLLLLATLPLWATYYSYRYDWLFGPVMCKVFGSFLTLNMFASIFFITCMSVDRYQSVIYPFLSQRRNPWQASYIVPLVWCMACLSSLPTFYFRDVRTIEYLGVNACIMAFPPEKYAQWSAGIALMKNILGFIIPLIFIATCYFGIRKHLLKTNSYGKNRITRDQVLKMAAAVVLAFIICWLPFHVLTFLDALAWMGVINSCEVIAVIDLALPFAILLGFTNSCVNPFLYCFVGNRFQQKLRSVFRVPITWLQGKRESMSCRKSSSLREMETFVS

[3] = DRUGMATRIX: Calcium Channel Type L, Benzothiazepine radioligand binding (ligand: [3H] Diltiazem); assay type: cell membranes, Rattus norvegicus, Wistar, Brain, Membrane; settings: Not Active = under 50% inhibition at 10 µM
Substance-K receptor = biological target: T2, Substance-K receptor (Homo sapiens, UniProt P21452); assay type: cell membranes, CHO, Membrane; settings: cho; note: in other assays of this panel Not Active means under 50% inhibition at 10 µM
T2 sequence (P21452 whole entry): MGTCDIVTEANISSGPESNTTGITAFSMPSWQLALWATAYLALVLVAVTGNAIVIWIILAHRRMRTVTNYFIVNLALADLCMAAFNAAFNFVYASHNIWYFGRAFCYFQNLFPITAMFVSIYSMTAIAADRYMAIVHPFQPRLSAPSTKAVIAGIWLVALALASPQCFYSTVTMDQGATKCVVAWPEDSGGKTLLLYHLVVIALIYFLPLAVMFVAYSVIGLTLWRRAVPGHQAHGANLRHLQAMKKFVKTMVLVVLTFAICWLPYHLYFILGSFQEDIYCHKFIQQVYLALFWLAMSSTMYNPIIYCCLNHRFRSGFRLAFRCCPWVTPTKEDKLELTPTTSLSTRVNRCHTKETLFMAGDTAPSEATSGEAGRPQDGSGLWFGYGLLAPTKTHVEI

[4] = biological target: T3, C-C chemokine receptor type 4 (Homo sapiens, UniProt P51679); assay type: cell membranes, Membrane; settings: chem-1; note: in other assays of this panel Not Active means under 50% inhibition at 10 µM
T3 sequence (P51679 whole entry): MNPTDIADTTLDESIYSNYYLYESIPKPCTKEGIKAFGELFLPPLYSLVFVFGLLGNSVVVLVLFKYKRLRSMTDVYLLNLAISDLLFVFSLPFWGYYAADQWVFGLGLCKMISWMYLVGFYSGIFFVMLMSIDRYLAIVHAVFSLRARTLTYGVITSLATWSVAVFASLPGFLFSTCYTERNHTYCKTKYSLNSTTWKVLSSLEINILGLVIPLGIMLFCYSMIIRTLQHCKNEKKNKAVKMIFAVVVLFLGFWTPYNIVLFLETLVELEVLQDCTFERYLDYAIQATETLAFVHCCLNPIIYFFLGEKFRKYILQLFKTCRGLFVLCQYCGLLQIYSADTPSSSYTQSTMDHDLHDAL

[5] = DRUGMATRIX: Glutamate, NMDA, Agonism radioligand binding (ligand: [3H] CGP-39653); assay type: cell membranes, Rattus norvegicus, Wistar, Cerebral cortex, Membrane; settings: Not Active = under 50% inhibition at 10 µM
[6] = DRUGMATRIX: Glutamate, NMDA, Phencyclidine radioligand binding (ligand: [3H] TCP); assay type: cell membranes, Rattus norvegicus, Wistar, Cerebral cortex, Membrane; settings: Not Active = under 50% inhibition at 10 µM
[7] = biological target: T4, Neuropeptide Y receptor type 1 (Homo sapiens, UniProt P25929); assay type: cell membranes, Membrane; settings: sk-n-mc; note: in other assays of this panel Not Active means under 50% inhibition at 10 µM
T4 sequence (P25929 whole entry): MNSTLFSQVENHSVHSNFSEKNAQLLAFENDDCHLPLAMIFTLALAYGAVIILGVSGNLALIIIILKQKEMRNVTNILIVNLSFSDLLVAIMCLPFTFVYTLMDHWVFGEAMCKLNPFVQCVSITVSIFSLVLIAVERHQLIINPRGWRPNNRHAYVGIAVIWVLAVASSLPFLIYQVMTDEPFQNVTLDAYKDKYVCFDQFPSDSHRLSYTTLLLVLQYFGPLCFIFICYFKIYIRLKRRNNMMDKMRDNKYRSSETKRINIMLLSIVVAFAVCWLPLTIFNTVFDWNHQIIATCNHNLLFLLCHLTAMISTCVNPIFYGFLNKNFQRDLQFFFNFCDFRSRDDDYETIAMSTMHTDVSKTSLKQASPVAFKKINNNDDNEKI

[8] = DRUGMATRIX: Platelet-Derived Growth Factor (PDGF) radioligand binding (ligand: [125I] PDGF); assay type: cell-based; settings: nih3t3; Not Active = under 50% inhibition at 10 µM
[9] = biological target: Mitogen-activated protein kinase 3 (Homo sapiens, UniProt P27361); test: DRUGMATRIX: Protein Serine/Threonine Kinase, ERK1 enzyme inhibition (substrate: Myelin Basic Protein); design: species or system Escherichia coli; settings: Not Active = under 50% inhibition at 10 µM
Mitogen-activated protein kinase 3, sequence (P27361 whole entry): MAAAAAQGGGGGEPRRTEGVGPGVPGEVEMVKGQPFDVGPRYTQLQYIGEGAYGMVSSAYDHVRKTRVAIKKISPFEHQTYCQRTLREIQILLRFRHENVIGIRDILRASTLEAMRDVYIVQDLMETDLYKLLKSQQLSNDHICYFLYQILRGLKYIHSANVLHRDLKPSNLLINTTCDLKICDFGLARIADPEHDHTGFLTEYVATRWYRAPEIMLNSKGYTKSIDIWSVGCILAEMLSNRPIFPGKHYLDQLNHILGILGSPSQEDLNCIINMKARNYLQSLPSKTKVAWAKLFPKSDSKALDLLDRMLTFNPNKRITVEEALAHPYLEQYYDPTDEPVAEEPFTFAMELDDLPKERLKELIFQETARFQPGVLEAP

[10] = biological target: Mitogen-activated protein kinase 1 (Homo sapiens, UniProt P28482); test: DRUGMATRIX: Protein Serine/Threonine Kinase, ERK2 enzyme inhibition (substrate: Myelin Basic Protein); design: species or system Escherichia coli; settings: Not Active = under 50% inhibition at 10 µM
Mitogen-activated protein kinase 1, sequence (P28482 whole entry): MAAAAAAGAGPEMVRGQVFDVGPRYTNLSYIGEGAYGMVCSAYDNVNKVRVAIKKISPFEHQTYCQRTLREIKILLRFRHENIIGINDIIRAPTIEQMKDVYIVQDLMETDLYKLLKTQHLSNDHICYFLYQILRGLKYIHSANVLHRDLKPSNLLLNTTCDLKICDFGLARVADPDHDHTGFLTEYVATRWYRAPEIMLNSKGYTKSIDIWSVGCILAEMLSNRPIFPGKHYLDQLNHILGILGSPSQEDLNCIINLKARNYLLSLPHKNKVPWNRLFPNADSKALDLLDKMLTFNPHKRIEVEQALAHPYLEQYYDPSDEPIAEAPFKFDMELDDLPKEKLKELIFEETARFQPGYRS

[11] = biological target: Tyrosine-protein kinase Fyn (Homo sapiens, UniProt P06241); test: biochemical; assay type: cell-based, Insect cells; settings: insect cells
Tyrosine-protein kinase Fyn, sequence (P06241 whole entry): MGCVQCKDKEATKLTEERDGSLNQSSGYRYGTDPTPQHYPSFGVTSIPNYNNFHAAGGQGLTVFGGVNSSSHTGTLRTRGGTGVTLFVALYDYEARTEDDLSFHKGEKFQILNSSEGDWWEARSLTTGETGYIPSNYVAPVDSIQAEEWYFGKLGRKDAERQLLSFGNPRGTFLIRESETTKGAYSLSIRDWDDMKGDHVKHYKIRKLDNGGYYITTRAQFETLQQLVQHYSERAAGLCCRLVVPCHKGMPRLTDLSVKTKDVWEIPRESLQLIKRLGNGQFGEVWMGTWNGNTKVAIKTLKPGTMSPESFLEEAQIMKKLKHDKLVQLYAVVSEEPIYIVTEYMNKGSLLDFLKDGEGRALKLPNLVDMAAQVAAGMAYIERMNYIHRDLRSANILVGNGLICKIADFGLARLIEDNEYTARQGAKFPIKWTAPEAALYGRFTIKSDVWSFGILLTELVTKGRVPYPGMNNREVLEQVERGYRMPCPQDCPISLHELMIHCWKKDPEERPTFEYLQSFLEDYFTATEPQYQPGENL

Acetylcholinesterase = Acetylcholinesterase (Homo sapiens, UniProt P22303); test: DRUGMATRIX: Acetylcholinesterase enzyme inhibition (substrate: acetylthiocholine); assay type: cell-based, HEK293; settings: hek293; Not Active = under 50% inhibition at 10 µM
Acetylcholinesterase, sequence (P22303 whole entry): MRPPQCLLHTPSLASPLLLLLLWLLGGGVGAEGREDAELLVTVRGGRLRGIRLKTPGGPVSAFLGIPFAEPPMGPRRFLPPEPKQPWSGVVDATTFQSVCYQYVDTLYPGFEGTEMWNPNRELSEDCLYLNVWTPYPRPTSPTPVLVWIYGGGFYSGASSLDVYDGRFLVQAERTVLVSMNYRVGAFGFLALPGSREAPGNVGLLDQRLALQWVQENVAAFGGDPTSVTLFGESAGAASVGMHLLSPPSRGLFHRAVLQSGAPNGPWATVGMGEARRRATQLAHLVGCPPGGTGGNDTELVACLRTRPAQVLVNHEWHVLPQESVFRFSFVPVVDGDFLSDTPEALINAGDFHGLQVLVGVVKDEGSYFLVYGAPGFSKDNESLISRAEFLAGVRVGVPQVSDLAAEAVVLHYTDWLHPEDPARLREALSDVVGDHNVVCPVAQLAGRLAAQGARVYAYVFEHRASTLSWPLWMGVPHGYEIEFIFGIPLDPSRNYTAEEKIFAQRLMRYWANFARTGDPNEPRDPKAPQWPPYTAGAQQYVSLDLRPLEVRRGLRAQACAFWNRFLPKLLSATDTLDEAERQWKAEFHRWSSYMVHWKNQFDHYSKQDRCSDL

Cytochrome P450 3A4 = Cytochrome P450 3A4 (Homo sapiens, UniProt P08684); settings: bti-tn-5b1-4; note: in other assays of this panel Not Active means under 50% inhibition at 10 µM
Cytochrome P450 3A4, sequence (P08684 whole entry): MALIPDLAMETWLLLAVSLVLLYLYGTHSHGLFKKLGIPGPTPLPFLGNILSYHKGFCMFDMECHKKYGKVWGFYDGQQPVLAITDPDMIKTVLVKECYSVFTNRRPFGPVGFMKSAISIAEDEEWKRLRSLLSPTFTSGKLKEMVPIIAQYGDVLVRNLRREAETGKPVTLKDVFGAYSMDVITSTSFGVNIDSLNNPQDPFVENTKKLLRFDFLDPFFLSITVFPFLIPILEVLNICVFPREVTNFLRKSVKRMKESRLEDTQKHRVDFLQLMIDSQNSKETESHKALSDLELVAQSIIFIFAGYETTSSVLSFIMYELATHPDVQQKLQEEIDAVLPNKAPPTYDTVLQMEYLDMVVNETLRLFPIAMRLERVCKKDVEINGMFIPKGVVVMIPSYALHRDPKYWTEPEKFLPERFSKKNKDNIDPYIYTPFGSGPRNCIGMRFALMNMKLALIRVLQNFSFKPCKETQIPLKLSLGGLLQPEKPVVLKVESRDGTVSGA

[12] = biological target: Voltage-gated inwardly rectifying potassium channel KCNH2 (Homo sapiens, UniProt Q12809); settings: hek293; note: in other assays of this panel Not Active means under 50% inhibition at 10 µM
Voltage-gated inwardly rectifying potassium channel KCNH2, sequence (Q12809 whole entry): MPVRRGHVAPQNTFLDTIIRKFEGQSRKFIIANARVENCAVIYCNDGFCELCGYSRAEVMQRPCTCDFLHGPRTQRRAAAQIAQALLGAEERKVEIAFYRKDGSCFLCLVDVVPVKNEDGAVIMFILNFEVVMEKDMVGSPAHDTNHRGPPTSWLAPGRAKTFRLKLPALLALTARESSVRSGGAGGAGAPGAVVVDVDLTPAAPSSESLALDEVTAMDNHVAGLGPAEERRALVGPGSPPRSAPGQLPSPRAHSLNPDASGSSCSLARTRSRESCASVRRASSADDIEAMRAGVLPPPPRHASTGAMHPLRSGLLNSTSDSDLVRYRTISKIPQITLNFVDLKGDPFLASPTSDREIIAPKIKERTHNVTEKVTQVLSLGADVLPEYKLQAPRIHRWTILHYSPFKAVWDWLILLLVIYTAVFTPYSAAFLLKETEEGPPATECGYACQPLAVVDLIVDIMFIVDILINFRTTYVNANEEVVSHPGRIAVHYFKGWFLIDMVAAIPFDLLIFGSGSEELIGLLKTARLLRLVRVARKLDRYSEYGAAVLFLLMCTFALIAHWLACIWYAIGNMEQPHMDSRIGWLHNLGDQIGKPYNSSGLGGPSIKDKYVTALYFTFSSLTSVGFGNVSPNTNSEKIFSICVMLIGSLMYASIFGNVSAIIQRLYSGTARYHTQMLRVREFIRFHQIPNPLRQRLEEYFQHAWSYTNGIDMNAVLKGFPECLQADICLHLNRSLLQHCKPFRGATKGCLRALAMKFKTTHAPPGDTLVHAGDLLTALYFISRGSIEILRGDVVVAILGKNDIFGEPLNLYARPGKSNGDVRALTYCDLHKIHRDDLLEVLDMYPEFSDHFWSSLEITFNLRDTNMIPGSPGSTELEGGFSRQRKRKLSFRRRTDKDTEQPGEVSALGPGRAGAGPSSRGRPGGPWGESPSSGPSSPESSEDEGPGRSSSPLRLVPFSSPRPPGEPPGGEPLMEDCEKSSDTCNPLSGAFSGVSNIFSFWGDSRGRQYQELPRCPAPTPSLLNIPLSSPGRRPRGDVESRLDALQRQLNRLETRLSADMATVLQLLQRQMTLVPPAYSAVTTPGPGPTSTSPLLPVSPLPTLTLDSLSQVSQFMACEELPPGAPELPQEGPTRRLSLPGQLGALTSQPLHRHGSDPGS

Row | Compound | IC50 [1] | IC50 [2] | IC50 [3] | Ki [3] | IC50 (Substance-K receptor) | IC50 [4] | IC50 [5] | Ki [5] | IC50 [6] | Ki [6] | IC50 [7] | IC50 [8] | Ki [8] | IC50 [9] | IC50 [10] | IC50 (Acetylcholinesterase) | IC50 (Cytochrome P450 3A4) | Ki (Cytochrome P450 3A4) | IC50 [12] | Ki [12] | other results
1 | CN1C(C(=O)Nc2ccccn2)=C(O)c2ccccc2S1(=O)=O [PIROXICAM] | Not Active | Not Active | Not Active | Not Active | Not Active | Not Active | Not Active | Not Active | Not Active | Not Active | Not Active | Not Active | Not Active | Not Active | Not Active | Not Active | Not Active | Not Active | Not Active | Not Active | IC50 [11]: Not Active
2 | CCC1(c2ccccc2)C(=O)NCNC1=O [PRIMIDONE] | Not Active | Not Active | Not Active | Not Active | Not Active | Not Active | Not Active | Not Active | Not Active | Not Active | Not Active | Not Active | Not Active | Not Active | Not Active | Not Active | Not Active | Not Active | Not Active | Not Active | IC50 [11]: Not Active
3 | CCCc1cc(=O)[nH]c(=S)[nH]1 [PROPYLTHIOURACIL] | Not Active | Not Active | Not Active | Not Active | Not Active | Not Active | Not Active | Not Active | Not Active | Not Active | Not Active | Not Active | Not Active | Not Active | Not Active | Not Active | Not Active | Not Active | Not Active | Not Active | IC50 [11]: Not Active
4 | CARBOPLATIN | Not Active | Not Active | Not Active | Not Active | Not Active | Not Active | Not Active | Not Active | Not Active | Not Active | Not Active | Not Active | Not Active | Not Active | Not Active | Not Active | Not Active | Not Active | Not Active | Not Active | Ki [1]: Not Active; Ki [2]: Not Active; Ki (Substance-K receptor): Not Active; Ki [4]: Not Active; Ki [7]: Not Active; Ki [9]: Not Active; Ki [10]: Not Active; IC50 [11]: Not Active; Ki [11]: Not Active; Ki (Acetylcholinesterase): Not Active
5 | CISPLATIN | Not Active | Not Active | Not Active | Not Active | Not Active | Not Active | Not Active | Not Active | Not Active | Not Active | Not Active | Not Active | Not Active |  | Not Active | Not Active | Not Active | Not Active | Not Active | Not Active | Ki [1]: Not Active; Ki [2]: Not Active; Ki (Substance-K receptor): Not Active; Ki [4]: Not Active; Ki [7]: Not Active; IC50 ([9]; read-out: IC50): 4.62 µM; Ki [10]: Not Active; IC50 ([11]; read-out: IC50): 4.77 µM; Ki (Acetylcholinesterase): Not Active
6 | GOLD SODIUM THIOMALATE | Not Active | Not Active | Not Active | Not Active | Not Active | Not Active | Not Active | Not Active | Not Active | Not Active | Not Active | Not Active | Not Active | Not Active | Not Active | Not Active | Not Active | Not Active | Not Active | Not Active | Ki [1]: Not Active; Ki [2]: Not Active; Ki (Substance-K receptor): Not Active; Ki [4]: Not Active; Ki [7]: Not Active; Ki [9]: Not Active; Ki [10]: Not Active; IC50 ([11]; read-out: IC50): 0.811 µM; Ki (Acetylcholinesterase): Not Active
7 | OXALIPLATIN | Not Active | Not Active | Not Active | Not Active | Not Active | Not Active | Not Active | Not Active | Not Active | Not Active | Not Active | Not Active | Not Active | Not Active | Not Active | Not Active | Not Active | Not Active | Not Active | Not Active | Ki [1]: Not Active; Ki [2]: Not Active; Ki (Substance-K receptor): Not Active; Ki [4]: Not Active; Ki [7]: Not Active; Ki [9]: Not Active; Ki [10]: Not Active; IC50 [11]: Not Active; Ki [11]: Not Active; Ki (Acetylcholinesterase): Not Active
